What all share (assay type): cell-based
One experiment concerns Phormidium inundatum. Description: Growth inhibiting activity against algae in Difco Algae Broth (Phormidium inundatum). As to conditions: 672 h. The procedure:
(§1) The growth inhibiting activity of the method of the invention against the three algae Chlorella pyrenoidosa, Chlorococcum hypnosporum and Phormidium inundatum was evaluated in Difco Algae Broth, the content of which was as follows:
(§2) Forty-gram portions of the algae medium were added to 250 mL Pyrex Erlenmeyer flasks fitted with loose metal caps and then sterilized. Each of the following substances was then added to the flasks in the order listed:
(§3) 1. Sterile algae medium as required to bring the total weight of the contents of each flask to 50 grams, after allowing for all subsequent additions specified below.
(§4) 2. A solution of one of compounds 1-4 or of a control agent to be evaluated in each test, to give the concentration desired in parts per million by weight.
(§5) 3. Chlorella pyrenoidosa, Chlorococcum hypnosporum and Phormidium inundatum in amounts sufficient to give excellent growth in the controls after 14 days. This was achieved by adding 1 milliliter of a 14 day old culture having luxuriant growth. The Chlorella pyrenoidosa culture was obtained from American Type Culture Collection No. 7516; Chlorococcum hypnosporum, from the University of TX at Austin; and Phormidium inundatum, WI No. 1093, from the University of WA.
(§6) As a control experiment, WSCP was used as a positive control agent. WSCP is a known toxicant which kills C. pyrenoidosa at 2 ppm, C. hypnosporum at 2ppm, and P. inundatum at 10 ppm. Control experiments were also carried out where no toxicants were employed. In the algicidal tests, the growth of algae in the nutrient medium is lush green and can be seen with the naked eye. Because the minimum inhibitory concentrations of the compounds in this example are those which result in complete inhibition, evaluation of the test results is not subjective.
(§7) After the inoculum of the test algae was added, the flasks were incubated at a temperature of 28°±2° C. under fluorescent illumination of 250 foot-candle intensity (8 hours light, 16 hours darkness) for a period adequate for growth in the controls (those portions of medium which contained no toxicant). Observations of growth were made at 7-day intervals. Minimum inhibitory concentrations are those that prevented complete growth after 28 days.

The next experiment deals with Chlorella pyrenoidosa. As to the kind of experiment: Growth inhibiting activity against algae in Difco Algae Broth (Chlorella pyrenoidosa). Conditions: Auxenochlorella pyrenoidosa, 672 h. The procedure:
as §1, §2, §3, §4, §5, §6, §7

A further experiment relates to Enterobacter aerogenes. Description: Basal salts method, minimum inhibitory concentration against Enterobacter aerogenes. As to conditions: Klebsiella aerogenes, at least 80% kill. The procedure: Compounds 1-4 of Examples 3-6 of the present invention were tested by the basal salts method described in U.S. Pat. No. 2,881,070 at column 5, beginning at line 12 and extending to column 6, line 53. […] The minimum inhibitory concentrations are those in which a percentage kill of at least 80% is obtained.

For a further experiment, the system named is Chlorococcum hypnosporum. As to the kind of experiment: Growth inhibiting activity against algae in Difco Algae Broth (Chlorococcum hypnosporum). As to conditions: 672 h. On the procedure: as §1, §2, §3, §4, §5, §6, §7
Another experiment relates to Aspergillus niger. Description: Growth inhibiting activity on the fungus Aspergillus niger. Conditions: Aspergillus niger pH 6.0; completely prevented growth; read-out: Minimum inhibitory concentration against fungi. On the procedure:
The microorganism growth inhibiting activity of compounds 1-4 on the fungus Aspergillus niger was evaluated. The method is described in U.S. Pat. No. 4,945,109, column 5 beginning at line 47 to column 6, line 33. The disclosure of U.S. Pat. No. 4,945,109 is incorporated herein by reference.

Setting [1] is: pH 7, read-out: Minimum inhibitory concentration against algae.

Among the data in patent publication US5162354A, “3-halo-5-halomethyl-2-oxazolidinones and their use as microbicides” (Buckman Laboratories International, Inc., priority 1991, dated 1992) are MIC values, retold here.

Values after ≈ are worked out from the molar mass of the structure shown. Read-outs that look alike come from different tables or passages of the source.

As for `O=C1OC(CBr)CN1Br` (stereo not drawn) [Compound 3, 3-Bromo-5-bromomethyl-2-oxazolidinone], the MIC is 2 µg/mL (≈ 7.73 µM) with Phormidium inundatum (P. inundatum, pH 7, 28 days, read-out: Minimum inhibitory concentration against algae); 2 µg/mL (≈ 7.73 µM) with Chlorella pyrenoidosa (C. pyrenoidosa, pH 7, 28 days, read-out: Minimum inhibitory concentration against algae); 2 µg/mL with Enterobacter aerogenes (pH 6.0); 4 µg/mL with Enterobacter aerogenes (pH 8.0); 8 µg/mL (≈ 30.9 µM) with Chlorococcum hypnosporum (C. hypnosporum, pH 7, 28 days, read-out: Minimum inhibitory concentration against algae); 100 µg/mL (≈ 386 µM) in the experiment with Aspergillus niger.
As to `O=C1OC(CBr)CN1Cl` (stereo not drawn) [Compound 4, 3-Chloro-5-bromomethyl-2-oxazolidinone], the MIC in the experiment with Phormidium inundatum (setting [1]) came to 8 µg/mL (≈ 37.3 µM); in the experiment on Chlorella pyrenoidosa (setting [1]), 4 µg/mL (≈ 18.7 µM); with Enterobacter aerogenes (pH 6.0) it was 10 µg/mL; in the experiment on Enterobacter aerogenes (pH 8.0) it was 20 µg/mL; in the experiment with Chlorococcum hypnosporum (setting [1]) it was 8 µg/mL (≈ 37.3 µM); in the experiment with Aspergillus niger it was 100 µg/mL (≈ 466 µM).
For `O=C1OC(CCl)CN1Cl` (stereo not drawn) [Compound 2, 3-Chloro-5-chloromethyl-2-oxazolidinone], the MIC in the experiment on Phormidium inundatum (setting [1]) turned out to be 1 µg/mL (≈ 5.88 µM); in the experiment with Chlorella pyrenoidosa (setting [1]), 1 µg/mL (≈ 5.88 µM); in the experiment with Enterobacter aerogenes (pH 6.0), 8 µg/mL; in the experiment on Enterobacter aerogenes (pH 8.0), 10 µg/mL; in the experiment with Chlorococcum hypnosporum (setting [1]), 1 µg/mL (≈ 5.88 µM); with Aspergillus niger, 128 µg/mL (≈ 753 µM).
